Our source for the MIC values is US4438107A, “Aminoglycosides and use thereof” (Kowa Company, Ltd., priority 1981, dated 1984).

The test system of assay [1] is Staphylococcus aureus 209P JC-1. Kind of assay: antibacterial spectrum, minimal inhibitory concentration. It is filed as cell-based.
Another assay has as its system Bacillus anthracis. Kind of assay: microbe, parasite or virus in culture. The following applies: read-out: Minimal inhibitory concentration. It is filed as cell-based.
A further assay relates to Bacillus cereus. Kind of assay: antibacterial spectrum, minimal inhibitory concentration. It is filed as cell-based.
Assay [2] has as its system Bacillus subtilis ATCC 6633. The description is as above. Format: cell-based. The conditions noted are these: ATCC6633.
The test system of another assay is Streptococcus faecalis. The assay is described as above. Format: cell-based. The following applies: Enterococcus faecalis.
In assay [3] the test system is Escherichia coli NIHJ JC-2. Described as above. It is filed as cell-based.
The subject of assay [4] is Escherichia coli K-12 ML1410. The assay is described as above. The following applies: K12ML1410. It is filed as cell-based.
The next assay relates to Escherichia coli R-82. The description is as above. Format: cell-based. The following applies: R82, resistance mechanism APH(3')II.
The test system of a further assay is Escherichia coli R-101. Described as above. Format: cell-based. The following applies: Escherichia coli, R101, read-out: Minimal inhibitory concentration.
A further assay has as its system Escherichia coli R-176. The description is as above. It is filed as cell-based. The conditions noted are these: R176, resistance mechanism AAC(3)II.
Assay [5] relates to Escherichia coli JR88/W677. The description is as above. It is filed as cell-based. The conditions noted are these: resistance mechanism AAC(3)I.
A further assay concerns Proteus vulgaris OX-19. The description is as above. It is filed as cell-based.
In assay [6] the test system is Klebsiella pneumoniae PCI 602. The assay is described as above. Format: cell-based. The following applies: PCI602; Klebsiella pneumoniae PCI 602; read-out: Minimal inhibitory concentration.
In assay [7] the test system is Pseudomonas aeruginosa No. 12. The description is as above. Format: cell-based.
Assay [8] relates to Pseudomonas aeruginosa No. 99. The assay is described as above. It is filed as cell-based.
Assay [9] deals with Pseudomonas aeruginosa TI-13. The description is as above. It is filed as cell-based. The source says: | Resistance mechanism: ^a APH(3')I,
Assay [10] concerns Pseudomonas aeruginosa A3. The assay is described as above. Format: cell-based.
For assay [11], the system named is Pseudomonas aeruginosa K-11. The assay is described as above. It is filed as cell-based.
Assay [12] concerns Pseudomonas aeruginosa TK-157. Described as above. Format: cell-based.
Assay [13] deals with Pseudomonas aeruginosa GN315. The assay is described as above. It is filed as cell-based.
Assay [14] has as its system Proteus inconstans GN1554. The description is as above. Format: cell-based. The following applies: Providencia alcalifaciens, GN1554, read-out: Minimal inhibitory concentration.
A further assay deals with Serratia marcescens. Described as above. Format: cell-based. The conditions noted are these: read-out: Minimal inhibitory concentration.
The subject of another assay is Escherichia coli R-81. The assay is described as above. The following applies: R81, read-out: Minimal inhibitory concentration.
The mark [15] stands for this setting: Escherichia coli, NIHJJC2, read-out: Minimal inhibitory concentration.
Setting [16] is: Proteus vulgaris, OX19, read-out: Minimal inhibitory concentration.
Setting [17] is: Pseudomonas aeruginosa, NO.99, read-out: Minimal inhibitory concentration.
[18] abbreviates: Pseudomonas aeruginosa, TI13, read-out: Minimal inhibitory concentration.
[19] abbreviates: Pseudomonas aeruginosa, K11, read-out: Minimal inhibitory concentration.
[20] abbreviates: TK157, Pseudomonas aeruginosa TK-157, resistance mechanism APH(3')II, read-out: Minimal inhibitory concentration.
Where [21] appears, read: Pseudomonas aeruginosa, GN315, read-out: Minimal inhibitory concentration.
Setting [22] is: Pseudomonas aeruginosa, A3, read-out: Minimal inhibitory concentration.

≈ marks a conversion by molar mass, not a printed value. Where two headings read alike, the source gives them in different places. Bounds are passed on as bounds.

In the case of `CC(N)C1CCC(N)C(OC2C(N)CC(OCC(O)CN)C(N(C)C(=O)CN)C2O)O1` (stereo not drawn) [A, 5-O-(3-amino-2-hydroxypropyl)-5-de-O-methyl-KA-6606 I], the MIC in assay [1] is 0.39 µg/mL (≈ 0.869 µM); in the assay with Bacillus anthracis, at most 0.1 µg/mL; in the assay on Bacillus cereus, 0.78 µg/mL (≈ 1.74 µM); in assay [2] it was 0.2 µg/mL (≈ 0.446 µM); in the assay with Streptococcus faecalis, 50 µg/mL (≈ 111 µM); in [3] (setting [15]), 3.13 µg/mL (≈ 6.98 µM). The MIC in assay [4] stood at 3.13 µg/mL (≈ 6.98 µM); in the assay on Escherichia coli R-82, 3.13 µg/mL (≈ 6.98 µM); with Escherichia coli R-101, 3.13 µg/mL (≈ 6.98 µM); in the assay on Escherichia coli R-176, 6.25 µg/mL (≈ 13.9 µM); in assay [5], 6.25 µg/mL (≈ 13.9 µM); in the assay on Proteus vulgaris OX-19 (setting [16]) it was 3.13 µg/mL (≈ 6.98 µM). In addition, the MIC was found to be 1.56 µg/mL (≈ 3.48 µM) in [6]; 0.39 µg/mL (≈ 0.869 µM) in assay [7]; 6.25 µg/mL (≈ 13.9 µM) in assay [8] (setting [17]); 3.13 µg/mL (≈ 6.98 µM) in [9] (setting [18]); 1.56 µg/mL (≈ 3.48 µM) in assay [10] (Pseudomonas aeruginosa A3, read-out: Minimal inhibitory concentration); 3.13 µg/mL (≈ 6.98 µM) in assay [11] (setting [19]). Further, the MIC is 1.56 µg/mL (≈ 3.48 µM) in assay [12] (setting [20]); 3.13 µg/mL (≈ 6.98 µM) in assay [13] (setting [21]); 6.25 µg/mL (≈ 13.9 µM) in assay [14]; 1.56 µg/mL (≈ 3.48 µM) in the assay on Serratia marcescens; 3.13 µg/mL (≈ 6.98 µM) in the assay on Escherichia coli R-81.

With `CC(N)C1CCC(N)C(OC2C(N)CC(OCC(O)CCN)C(N(C)C(=O)CN)C2O)O1` (stereo not drawn) [B, 5-O-(4-amino-2-hydroxybutyl)-5-de-O-methyl-KA-6606 I], the MIC in assay [1] was 0.39 µg/mL (≈ 0.843 µM); with Bacillus anthracis, at most 0.1 µg/mL; against Bacillus cereus, 1.56 µg/mL (≈ 3.37 µM); in assay [2], at most 0.1 µg/mL; with Streptococcus faecalis it was 50 µg/mL (≈ 108 µM); in assay [3] (setting [15]), 3.13 µg/mL (≈ 6.77 µM). Moreover, the MIC in assay [4] turned out to be 3.13 µg/mL (≈ 6.77 µM); against Escherichia coli R-82, 3.13 µg/mL (≈ 6.77 µM); in the assay on Escherichia coli R-101 it was 3.13 µg/mL (≈ 6.77 µM); with Escherichia coli R-176 it was 6.25 µg/mL (≈ 13.5 µM); in assay [5] it was 3.13 µg/mL (≈ 6.77 µM); with Proteus vulgaris OX-19 (setting [16]), 3.13 µg/mL (≈ 6.77 µM). Further, the MIC in [6] came out at 1.56 µg/mL (≈ 3.37 µM); in [7] it was 0.39 µg/mL (≈ 0.843 µM); in assay [8] (setting [17]) it was 6.25 µg/mL (≈ 13.5 µM); in assay [9] (setting [18]), 3.13 µg/mL (≈ 6.77 µM); in assay [10] (setting [22]), 3.13 µg/mL (≈ 6.77 µM); in assay [11] (setting [19]), 6.25 µg/mL (≈ 13.5 µM). Besides, the MIC in [12] (Pseudomonas aeruginosa, TK157, read-out: Minimal inhibitory concentration) was 3.13 µg/mL (≈ 6.77 µM); in assay [13] (setting [21]) it was 6.25 µg/mL (≈ 13.5 µM); in assay [14], 6.25 µg/mL (≈ 13.5 µM); with Serratia marcescens it was 1.56 µg/mL (≈ 3.37 µM); in the assay on Escherichia coli R-81 it was 3.13 µg/mL (≈ 6.77 µM).

Take `CC(N)C1CCC(N)C(OC2C(N)CC(OCC(O)CO)C(N(C)C(=O)CN)C2O)O1` (stereo not drawn) [C, 5-de-O-methyl-5-O-(2,3-dihydroxypropyl)-KA-6606 I]: the MIC in assay [1] is 0.39 µg/mL (≈ 0.868 µM); in the assay on Bacillus anthracis, at most 0.1 µg/mL; in the assay on Bacillus cereus it was 3.13 µg/mL (≈ 6.96 µM); in assay [2], 0.2 µg/mL (≈ 0.445 µM); against Streptococcus faecalis it was 100 µg/mL (≈ 222 µM); in [3] (NIHJJC2, Escherichia coli NIHJ JC-2, read-out: Minimal inhibitory concentration) it was 3.13 µg/mL (≈ 6.96 µM). Further, the MIC in [4] was found to be 6.25 µg/mL (≈ 13.9 µM); with Escherichia coli R-82 it was 6.25 µg/mL (≈ 13.9 µM); with Escherichia coli R-101 it was 6.25 µg/mL (≈ 13.9 µM); against Escherichia coli R-176, 6.25 µg/mL (≈ 13.9 µM); in assay [5], 6.25 µg/mL (≈ 13.9 µM); in the assay with Proteus vulgaris OX-19 (OX19, Proteus vulgaris OX-19, read-out: Minimal inhibitory concentration), 3.13 µg/mL (≈ 6.96 µM). The MIC in [6] is 0.78 µg/mL (≈ 1.74 µM); in [7] it was 1.56 µg/mL (≈ 3.47 µM); in [8] (Pseudomonas aeruginosa No. 99, resistance mechanism AAC(3)I, read-out: Minimal inhibitory concentration), 25 µg/mL (≈ 55.6 µM); in assay [9] (TI13, Pseudomonas aeruginosa TI-13, resistance mechanism APH(3')I, read-out: Minimal inhibitory concentration), 12.5 µg/mL (≈ 27.8 µM); in assay [10] (setting [22]), 6.25 µg/mL (≈ 13.9 µM); in assay [11] (K11, Pseudomonas aeruginosa K-11, read-out: Minimal inhibitory concentration) it was 12.5 µg/mL (≈ 27.8 µM). In addition, the MIC in assay [12] (setting [20]) was determined as 12.5 µg/mL (≈ 27.8 µM); in [13] (Pseudomonas aeruginosa GN315, resistance mechanism AAC(6')IV, read-out: Minimal inhibitory concentration), 12.5 µg/mL (≈ 27.8 µM); in assay [14] it was 6.25 µg/mL (≈ 13.9 µM); in the assay on Serratia marcescens, 3.13 µg/mL (≈ 6.96 µM); with Escherichia coli R-81 it was 6.25 µg/mL (≈ 13.9 µM).
